Read-outs that look alike come from different tables or passages of the source.
Experiments:
mice [1] = experiment: Mouse 'tetrad' of tests after i.v. administration (Example 2); conditions: Mus musculus, iv
CB1 receptors [2] = target: T1, CB1 receptors (Rattus norvegicus, UniProt P20272); experiment: CB1 receptor binding, displacement of [3H]CP-55,940 from rat brain P2 membranes (Example 2); parameters: from tissue; host or cells: whole rat brain membranes; conditions: CB1 (Ki, nM), rat brain membranes
Description: (§1) For CB1 receptor binding, [^3H]CP-55,940 (Kd=[…]) was incubated with P2 membranes from whole rat brains as described in Compton et al., J. Pharm. Exp. Ther. 265:218-226 (1993). Displacement curves were generated by incubating drugs with 1 nM of [^3H]CP-55,940. The assays were performed in triplicate, and the results represent the combined data from three individual experiments. A separate set of experiments were conducted in which phenylmthylsulfonylfluoride (PMSF) was added at a concentration of 100 μm in order to prevent possible metabolism of the analogs. CB2 binding assays were performed as described in Melek et al., ibid. In all cases, Ki values were calculated applying the Cheng-Prusoff equation to the IC50 values (obtained by GraphPad) for the displacement of the bound radioligand by increasing concentrations of the test compounds.
(§2) In Table 1, affinity for CB1 and CB2 receptors was measured in displacement assays carried out using rat brain or spleen membranes and [^3H]CP 55,940 or […], respectively. Potency at human VR1 was established by measuring the stimulatory activity of the compounds on the Ca^2+ intracellular concentration in HEK cells transfected with cDNA encoding the human VR1 receptor. Efficacy at VR1 was measured by expressing the effect of a maximal concentration of each compound (usually 10 μM) as percent of the maximal possible effect obtained with 4 μM ionomycin. Data are means ±SEM of at least n=3 separate determinations. *Ki was determined in the presence of PMSF.

[3] = target: T2, fatty acid amide hydrolase (FAAH) (Mus musculus, UniProt O08914); experiment: [14C]AEA hydrolysis by N18TG2 cell membranes; format: biochemical
T2 construct: membranes prepared from N18TG2 cells; endogenous in cells; host or cells: N18TG2 cell membranes
T2 sequence (O08914 1-579): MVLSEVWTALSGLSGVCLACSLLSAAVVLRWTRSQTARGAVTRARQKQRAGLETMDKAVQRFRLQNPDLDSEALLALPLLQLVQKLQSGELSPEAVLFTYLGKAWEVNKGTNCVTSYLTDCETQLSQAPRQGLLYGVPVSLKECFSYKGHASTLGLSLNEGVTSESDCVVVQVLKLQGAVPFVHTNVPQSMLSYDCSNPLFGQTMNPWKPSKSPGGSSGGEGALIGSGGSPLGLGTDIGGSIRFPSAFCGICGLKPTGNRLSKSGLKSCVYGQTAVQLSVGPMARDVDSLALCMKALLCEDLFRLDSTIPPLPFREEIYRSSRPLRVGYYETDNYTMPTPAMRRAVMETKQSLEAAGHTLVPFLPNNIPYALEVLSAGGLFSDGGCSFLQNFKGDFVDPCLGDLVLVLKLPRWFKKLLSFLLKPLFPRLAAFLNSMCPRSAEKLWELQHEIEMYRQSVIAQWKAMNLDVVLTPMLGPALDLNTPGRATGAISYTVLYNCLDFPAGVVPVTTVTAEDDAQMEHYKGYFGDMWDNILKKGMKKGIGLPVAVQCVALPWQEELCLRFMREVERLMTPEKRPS
Description: (§3) The effect of compounds on the enzymatic hydrolysis of [^14C] AEA (6 μM) was studied by using membranes prepared from N18TG2 cells incubated with increasing concentrations of compounds in 50 mM Tris-HCL, pH 9, for 30 min at 37° C. [^14C] Ethanolamine produced from [^14C] AEA hydrolysis was quantified by scintillation spectroscopy and used to measure fatty acid amide hydrolase (FAAH) activity. The effect of compounds on the uptake of AEA by RBL-2H3 cells was studied with a procedure analogous to that described in Melck, ibid., and modified as described in Hilliard et al., J. Neurochem. 69:631-638 (1997). Cells were incubated with [^14C] AEA (4μM) for 5 min. at 37° C., in the presence or absence of varying concentrations of the inhibitors. Residual [1^4C] AEA in the incubation media after extraction with CHCl3/CH30H (2:1 by volume) was used as a measure of the AEA that was taken up by cells.
Accordingly, when the compounds were tested for their capability of inhibiting [^14C] […] This is in agreement with previous observations that Me-AEA, DMH-derivatives of AEA and arvanil are poor substrates for FAAH. The two exceptions were O-1856 and O-1895, which did inhibit the hydrolysis of [^14C] AEA, although not very potently.

human VR1 receptor [4] = target: T3, human VR1 receptor (Homo sapiens, UniProt Q8NER1); experiment: Ca2+ influx (Fluo-3) in HEK-hVR1 cells (Example 2); format: cell-based; parameters: expressed in transfected cells; host or cells: HEK 293 cells (HEK-hVR1)
Description: N18TG2 and RBL-2H3 cells were grown as described in Melck et al, Bioch. Biophys. Res. Commun. 262:275-284 (1999). Ionomycin was purchased from Sigma. DMH-arvanil, and six substituted dimethylpentyl (DMP) derivatives of arvanil and met-AEA were synthesized as described in Example 1.
HEK-hVR1 cells were prepared and loaded as described in De Petrocellis, et al., FEBS Lett. 483:52-56 (2000). Experiments were carried out by measuring fluorescence at 25° C. […] Capsazepine (1-5 μM) was added 30 minu. Before the test compounds.
as §2

CB2 receptors = target: T4, CB2 receptors (Rattus norvegicus, UniProt Q9QZN9); experiment: CB2 binding, displacement of [3H]WIN55,212-2 from rat spleen membranes
T4 construct: rat spleen membranes, which contain mostly CB2 receptors; from tissue; host or cells: rat spleen membranes
T4 sequence (Q9QZN9 1-360): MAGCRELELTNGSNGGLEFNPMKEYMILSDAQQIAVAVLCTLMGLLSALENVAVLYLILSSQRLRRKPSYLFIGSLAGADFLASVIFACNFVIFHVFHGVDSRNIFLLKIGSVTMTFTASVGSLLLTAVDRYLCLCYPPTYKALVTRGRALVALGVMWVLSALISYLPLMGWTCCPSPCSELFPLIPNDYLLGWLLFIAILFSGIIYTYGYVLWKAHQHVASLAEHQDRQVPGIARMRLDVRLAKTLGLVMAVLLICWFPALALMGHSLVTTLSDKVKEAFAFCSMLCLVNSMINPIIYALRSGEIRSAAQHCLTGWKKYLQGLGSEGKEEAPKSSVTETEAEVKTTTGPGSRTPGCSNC
Description: as §1, §2
The hydroxy analog is much less CB1 vs. CB2 selective in both series.

[5] = tested on: anandamide membrane transporter (AMT); format: cell-based, rat; conditions: [14C]AEA uptake, RBL-2H3 cells
Description: as §3
In consideration of the potent inhibition of the AMT previously observed with arvanil and its derivatives (see Melck, ibid), the seven compounds were also tested for their inhibitory effect on [^4C] […] Thus, the results in Table 1 confirm the existence of a partial overlap between the ligand recognition properties of VR1 receptors and the AMT (14.24).

CB1 receptors [6] = target: T1, CB1 receptors; experiment: Agonist-stimulated [35S]GTPγS binding, rat hippocampal membranes; conditions: for Emax: read-out: GTPγS binding (Emax)
FAAH = target: T5, FAAH (Rattus norvegicus, UniProt P97612); experiment: Fatty acid amide hydrolase assay, rat brain membranes; format: biochemical
T5 construct: membranes prepared from frozen brains of CD rats (Charles River, France); from tissue; host or cells: brain membranes of CD rats
T5 sequence (P97612 1-579): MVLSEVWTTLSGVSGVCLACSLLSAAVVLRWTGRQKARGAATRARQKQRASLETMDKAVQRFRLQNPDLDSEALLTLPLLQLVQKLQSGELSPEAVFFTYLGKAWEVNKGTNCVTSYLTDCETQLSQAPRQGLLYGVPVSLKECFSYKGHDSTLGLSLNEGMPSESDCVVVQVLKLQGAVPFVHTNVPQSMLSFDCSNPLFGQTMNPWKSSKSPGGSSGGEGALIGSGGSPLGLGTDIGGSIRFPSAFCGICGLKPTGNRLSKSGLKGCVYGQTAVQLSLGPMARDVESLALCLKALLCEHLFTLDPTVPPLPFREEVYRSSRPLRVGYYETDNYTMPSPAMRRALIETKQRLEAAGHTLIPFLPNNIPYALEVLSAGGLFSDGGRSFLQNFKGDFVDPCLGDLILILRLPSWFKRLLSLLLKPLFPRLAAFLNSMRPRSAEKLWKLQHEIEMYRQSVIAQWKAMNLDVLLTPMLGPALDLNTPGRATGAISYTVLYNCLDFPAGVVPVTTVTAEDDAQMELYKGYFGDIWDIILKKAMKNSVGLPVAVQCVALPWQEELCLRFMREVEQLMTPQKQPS
Description: Fatty acid amide hydrolase assay—The effect of compounds on the enzymatic hydrolysis of AEA was studied using membranes prepared from frozen brains of CD rats (Charles River, France), incubated with the test compounds and [^14C] AEA (9 μM) in 50 mM Tris-HCl, pH 9, for 30 min at 37° C. [^14C] Ethanolamine produced from [^14C] AEA hydrolysis was measured by scintillation counting of the aqueous phase after extraction of the incubation mixture with 2 volumes of CHCl3/CH3OH 2:1 (by vol.).
(§4) CP55940 from whole rat brain membranes.

mice [7] = experiment: Mouse tetrad of behavioral tests, i.v. (Example 3); format: in vivo; conditions: i.v.; for R.I. ED50 / Rectal temp. ED50 / Spontan. activity ED50 / Tail Flick ED50: mean (range)
Description: The analogs were administered to mice by tail-vein injection and evaluated for their ability to produce hypomotility, hypothermia, and antinociception. These pharmacological measures were determined in the same mouse at a time when maximal activity was present. […] A 10-sec maximum latency was used. Antinociception was expressed as % MPE as described below.
Data Analysis—For production of hypomotility and hypothermia, the data were expressed as a percentage of control activity and change in temperature, respectively. Antinociception was calculated according to the following equation.
% MPE=−((test latency-control latency)/(10s-control latency))×100
At least six animals were treated with each dose-response relationships could be determined for each analog. ED50 values were determined from least-squares unweighted linear regression analysis of log dose-response plots.
The ED50 (milligrams per kilogram, i.v.) does for inhibition of sector crossings (spontaneous activity) in an open field, antinociception (delay in seconds in the tail-flick response), decrease of rectal temperature in degrees Celsius, and induction of time spent in immobility on a ring are shown. Data are means (and ranges) of N>six animals.

AMT = format: cell-based, rat; conditions: [14C]AEA uptake, RBL-2H3 cells; read-out: AEA transport (IC50)
Description: AEA. Cells were incubated with [^14C] AEA for 5 min at 37° C., in the presence or absence of varying concentrations of the inhibitors. Residual [^14C] AEA in the incubation media after extraction with CHCl3/CH3OH 2:1 (by vol.), determined by scintillation counting of the lyophilized organic phase, was used as a measure of the AEA that was taken up by cells.
as §4

CB1 receptors [8] = target: T1, CB1 receptors; experiment: CB1 receptor binding, [3H]CP55940, whole rat brain membranes (Example 3); conditions: read-out: CB1 affinity Ki
human VR1 receptor [9] = target: T3, human VR1 receptor; experiment: Cytosolic calcium concentration assay in HEK-hVR1 cells (Example 3); conditions: for Emax: read-out: hVR1 efficacy (maximal effect, in parentheses)

T1 sequence (P20272 whole entry): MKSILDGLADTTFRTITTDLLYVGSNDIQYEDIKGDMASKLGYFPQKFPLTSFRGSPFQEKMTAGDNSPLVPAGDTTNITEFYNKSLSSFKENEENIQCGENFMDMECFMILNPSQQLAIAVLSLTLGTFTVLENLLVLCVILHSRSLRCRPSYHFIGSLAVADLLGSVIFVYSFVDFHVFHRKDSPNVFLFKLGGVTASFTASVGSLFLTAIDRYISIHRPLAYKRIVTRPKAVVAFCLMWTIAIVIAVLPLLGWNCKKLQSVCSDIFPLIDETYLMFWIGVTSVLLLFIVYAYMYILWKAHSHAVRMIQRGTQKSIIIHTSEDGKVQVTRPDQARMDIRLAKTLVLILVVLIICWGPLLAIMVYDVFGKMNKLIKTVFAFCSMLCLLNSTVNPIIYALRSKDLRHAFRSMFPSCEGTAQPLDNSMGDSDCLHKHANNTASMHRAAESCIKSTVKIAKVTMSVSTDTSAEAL
T3 sequence (Q8NER1 whole entry): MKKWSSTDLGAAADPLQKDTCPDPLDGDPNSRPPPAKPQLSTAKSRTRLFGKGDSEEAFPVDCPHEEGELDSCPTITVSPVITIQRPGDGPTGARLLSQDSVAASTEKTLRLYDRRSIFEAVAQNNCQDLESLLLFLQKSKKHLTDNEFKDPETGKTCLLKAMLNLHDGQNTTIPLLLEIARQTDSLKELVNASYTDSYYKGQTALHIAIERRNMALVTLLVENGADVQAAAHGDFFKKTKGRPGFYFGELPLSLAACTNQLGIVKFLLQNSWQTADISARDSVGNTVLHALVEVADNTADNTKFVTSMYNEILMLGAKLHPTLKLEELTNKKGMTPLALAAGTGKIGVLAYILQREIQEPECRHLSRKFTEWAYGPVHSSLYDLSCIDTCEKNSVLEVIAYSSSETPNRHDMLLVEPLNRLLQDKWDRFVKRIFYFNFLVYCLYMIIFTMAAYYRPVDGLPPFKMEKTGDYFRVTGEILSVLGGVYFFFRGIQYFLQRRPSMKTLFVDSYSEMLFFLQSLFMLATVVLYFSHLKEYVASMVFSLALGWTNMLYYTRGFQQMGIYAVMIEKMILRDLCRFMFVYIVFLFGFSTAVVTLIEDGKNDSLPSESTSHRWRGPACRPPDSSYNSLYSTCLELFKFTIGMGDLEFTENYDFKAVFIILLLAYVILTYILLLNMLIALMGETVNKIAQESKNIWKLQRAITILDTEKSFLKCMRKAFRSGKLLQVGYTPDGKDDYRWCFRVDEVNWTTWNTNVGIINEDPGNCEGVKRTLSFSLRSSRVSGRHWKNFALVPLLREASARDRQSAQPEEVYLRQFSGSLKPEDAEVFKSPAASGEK

SMILES: COc1cc(CNC(=O)CCC/C=C\C/C=C\C/C=C\C/C=C\C(C)(C)CCCCBr)ccc1O [Compound O-1861, 20-Bromo-16,16-dimethyl-eicosa-5,8,11,14-all-cis-tetraenoic acid (4-hydroxy-3-methoxy-benzyl) amide]
- ED50 (mice [1]; read-out: Average ED50 for the four effects): 0.068 mg/kg
- ED50 (mice [1]; read-out: R.I. (relative immobility) ED50): 0.055 mg/kg
- ED50 (mice [1]; read-out: R.T. (rectal temperature) ED50): 0.053 mg/kg
- ED50 (mice [1]; read-out: S.A. (spontaneous activity) ED50): 0.06 mg/kg
- ED50 (mice [1]; read-out: T.F. (tail-flick) ED50): 0.104 mg/kg
- Ki (CB1 receptors [2]; determined in the presence of PMSF, [3H]CP 55,940, PMSF 100 μM): 24.3 ± 2.6 nM
- Ki (CB1 receptors [2]; [3H]CP 55,940, without PMSF): 32.6 ± 1.2 nM
- IC50 [3]: > 50000 nM
- EC50 (human VR1 receptor [4]; VR1 (EC50, nM), Ca2+ in HEK cells with human VR1): 30 ± 0.2 nM
- VR1 efficacy (human VR1 receptor [4]; maximal concentration (usually 10 μM), percent of effect of 4 μM ionomycin): 74.0 ± 4.5%
- Ki (CB2 receptors): > 10000 nM
- IC50 [5]: 13500 nM
- EC50 (CB1 receptors [6]): 70 nM
- Emax (CB1 receptors [6]): 32%

SMILES: CCCCC/C=C\C/C=C\C/C=C\C/C=C\CCCNC(=S)NCc1ccc(O)c(OC)c1 [Compound O-2095]
- IC50 (FAAH): > 50000 nM
- Average ED50 (mice [7]): 0.05 milligrams per kilogram
- R.I. ED50 (mice [7]): 0.08 (0.05-0.12) milligrams per kilogram
- Rectal temp. ED50 (mice [7]): 0.03 (0.02-0.07) milligrams per kilogram
- Spontan. activity ED50 (mice [7]): 0.02 (0.02-0.03) milligrams per kilogram
- Tail Flick ED50 (mice [7]): 0.08 (0.06-0.10) milligrams per kilogram
- IC50 (AMT): 7500 ± 1800 nM
- Ki (CB1 receptors [8]): 8630 ± 130 nM
- EC50 (human VR1 receptor [9]): 0.4 ± 0.1 nM
- Emax (human VR1 receptor [9]): 72.1%
- Emax (CB1 receptors [6]): 0%

SMILES: CCCCC/C=C\C/C=C\C/C=C\C/C=C\CCCNC(=O)NCc1ccc(O)c(OC)c1 [Compound O-1987]
- IC50 (FAAH): 2000 ± 400 nM
- Average ED50 (mice [7]): 0.09 milligrams per kilogram
- R.I. ED50 (mice [7]): 0.09 (0.06-0.12) milligrams per kilogram
- Rectal temp. ED50 (mice [7]): 0.08 (0.03-0.20) milligrams per kilogram
- Spontan. activity ED50 (mice [7]): 0.06 (0.04-0.08) milligrams per kilogram
- Tail Flick ED50 (mice [7]): 0.12 (0.08-0.17) milligrams per kilogram
- IC50 (AMT): 19300 ± 3300 nM
- Ki (CB1 receptors [8]): 1720 ± 200 nM
- EC50 (human VR1 receptor [9]): 0.7 ± 0.2 nM
- Emax (human VR1 receptor [9]): 80.6%
- Emax (CB1 receptors [6]): 0%

Reference: US20040122089A1, “Novel eicosanoid analgesics” (priority 2001, published 2004)
